US12570655B2, “Cysteine covalent modifiers of AKT1 and uses thereof” (Terremoto Biosciences, Inc., priority 2023, dated 2026)

Columns and labels:
Type in all cases: cell-based
[1] = molecular target: T1, AKT1 E17K (Homo sapiens, UniProt P31749, E17K); experiment: Live cell AKT1 E17K target engagement by NanoBRET competitive probe displacement; conditions: HEK293 cells transfected with kinase-NanoLuciferase fusion, 2 h at 37° C.
T1 construct: expressed in transfected cells; host or cells: HEK293
T1 sequence (P31749 whole entry E17K, the tested form may be a part): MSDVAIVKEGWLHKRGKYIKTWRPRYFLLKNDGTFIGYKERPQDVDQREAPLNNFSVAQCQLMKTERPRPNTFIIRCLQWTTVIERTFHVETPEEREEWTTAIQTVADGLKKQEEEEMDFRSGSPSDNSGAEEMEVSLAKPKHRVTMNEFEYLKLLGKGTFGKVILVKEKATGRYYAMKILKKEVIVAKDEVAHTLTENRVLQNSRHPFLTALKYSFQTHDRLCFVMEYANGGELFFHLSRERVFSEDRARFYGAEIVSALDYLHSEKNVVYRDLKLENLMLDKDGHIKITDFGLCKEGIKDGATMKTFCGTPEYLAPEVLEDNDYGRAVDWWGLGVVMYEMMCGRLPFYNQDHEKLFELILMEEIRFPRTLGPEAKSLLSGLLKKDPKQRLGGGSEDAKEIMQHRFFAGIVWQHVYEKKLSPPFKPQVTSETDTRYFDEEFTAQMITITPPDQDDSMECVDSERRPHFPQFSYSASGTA
Outline: (§1)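 Live-cell competitive tracer displacement in HEK293 expressing NanoLuciferase-tagged kinase. Compound and ATP-competitive tracer (~EC50) are co-incubated 2 h at 37 °C; BRET (E600/E460) gives IC50.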

[2] = system: LAPC4 prostate cancer cells; experiment: Antiproliferative effects in LAPC4 cells (CellTiter Glo); conditions: Homo sapiens, LAPC4, 72 h, LAPC4 cells (AKT1 E17K allele), read-out: LAPC4 proliferation IC50
Outline: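 Cells grown in IMDM supplemented with 12% FBS plus 1% P/S were treated for 72 h with DMSO-dissolved compounds. ATP-based luminescence was fitted to a log(inhibitor) versus response Hill model, giving IC50.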

[3] = molecular target: T2, AKT1 WT (Homo sapiens, UniProt P31749); experiment: Live cell AKT1 WT target engagement by NanoBRET competitive probe displacement; conditions: HEK293 cells transfected with kinase-NanoLuciferase fusion, 2 h at 37° C.
T2 construct: expressed in transfected cells; host or cells: HEK293
T2 sequence (P31749 whole entry, the tested form may be a part): as the sequence (P31749 whole entry E17K, the tested form may be a part) above, with K17E counted along it
Outline: as §1

[4] = molecular target: T3, AKT2 (Homo sapiens, UniProt P31751); experiment: Live cell AKT2 target engagement by NanoBRET competitive probe displacement; conditions: HEK293 cells transfected with kinase-NanoLuciferase fusion, 2 h at 37° C.
T3 construct: expressed in transfected cells; host or cells: HEK293
T3 sequence (P31751 whole entry, the tested form may be a part): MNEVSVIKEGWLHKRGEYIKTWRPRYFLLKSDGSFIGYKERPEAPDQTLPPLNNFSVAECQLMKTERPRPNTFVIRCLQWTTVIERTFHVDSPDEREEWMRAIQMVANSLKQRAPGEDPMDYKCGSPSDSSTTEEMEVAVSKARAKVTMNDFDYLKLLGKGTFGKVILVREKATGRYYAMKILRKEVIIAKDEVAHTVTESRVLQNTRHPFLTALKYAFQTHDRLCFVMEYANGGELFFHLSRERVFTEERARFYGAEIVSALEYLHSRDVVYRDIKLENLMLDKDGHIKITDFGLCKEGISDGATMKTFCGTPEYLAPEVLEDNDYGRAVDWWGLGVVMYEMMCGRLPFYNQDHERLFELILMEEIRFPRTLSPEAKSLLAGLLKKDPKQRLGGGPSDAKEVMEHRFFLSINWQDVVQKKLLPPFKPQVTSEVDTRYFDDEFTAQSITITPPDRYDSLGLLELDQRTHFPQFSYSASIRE
Outline: as §1

| SMILES | IC50 [1] [nM] | IC50 [2] [nM] | IC50 [3] [nM] | IC50 [4] [nM] |
| --- | --- | --- | --- | --- |
| C=CC(=O)N(C)CC(=O)N[C@H]1CCc2cc(-n3c(-c4cccnc4N)nc4ccc(-n5cccn5)nc43)ccc21 [Example 52, (S)-N-(2-((5-(2-(2-aminopyridin-3-yl)-5-(1H-pyrazol-1-yl)-3H-imidazo[4,5-b]pyridin-3-yl)-2,3-dihydro-1H-inden-1-yl)amino)-2-oxoethyl)-N-methylacrylamide] | 949 | 911 | 174 | 3480 |
| C=CS(=O)(=O)N1CCC(N[C@H]2CCc3cc(-n4c(-c5cccnc5N)nc5ccc(-n6cccn6)nc54)ccc32)CC1 [Example 61, 3-{3-[(1S)-1-{[1-(ethenesulfonyl)piperidin-4-yl]amino}-2,3-dihydro-1H-inden-5-yl]-5-(pyrazol-1-yl)imidazo[4,5-b]pyridin-2-yl}pyridin-2-amine] | 28.6 | 72.4 | 19 | 52.4 |
| C=CC(=O)N1CCC(N(C)[C@H]2CCc3cc(-n4c(-c5cccnc5N)nc5ccc(-n6cccn6)nc54)ccc32)CC1 [Example 67, (S)-1-(4-((5-(2-(2-aminopyridin-3-yl)-5-(1H-pyrazol-1-yl)-3H-imidazo[4,5-b]pyridin-3-yl)-2,3-dihydro-1H-inden-1-yl)(methyl)amino)piperidin-1-yl)prop-2-en-1-one] | 87.9 | 287 | 21.8 | 107 |
| C=CC(=O)N1CCC(CN[C@H]2CCc3cc(-n4c(-c5cccnc5N)nc5ccc(-n6cccn6)nc54)ccc32)CC1 [Example 68, 1-[4-({[(1S)-5-[2-(2-aminopyridin-3-yl)-5-(pyrazol-1-yl)imidazo[4,5-b]pyridin-3-yl]-2,3-dihydro-1H-inden-1-yl]amino}methyl)piperidin-1-yl]prop-2-en-1-one] | 21.9 | 75.6 | 9.84 | 74.2 |
| CC#CC(=O)N1CCC(N[C@H]2CCc3cc(-n4c(-c5cccnc5N)nc5ccc(-n6cccn6)nc54)ccc32)CC1 [Example 69, 1-(4-{[(1S)-5-[2-(2-aminopyridin-3-yl)-5-(pyrazol-1-yl)imidazo[4,5-b]pyridin-3-yl]-2,3-dihydro-1H-inden-1-yl]amino}piperidin-1-yl)but-2-yn-1-one] | 57.7 | 358 | 25.3 | 226 |
| C=CC(=O)Nc1cc(O)ccc1C(=O)N[C@H]1CCc2cc(-n3c(-c4cccnc4N)nc4ccc(-n5cccn5)nc43)ccc21 [Example 70, N-[(1S)-5-[2-(2-aminopyridin-3-yl)-5-(pyrazol-1-yl)imidazo[4,5-b]pyridin-3-yl]-2,3-dihydro-1H-inden-1-yl]-4-hydroxy-2-(prop-2-enamido)benzamide] | 288 | 1040 | 83.7 | 1340 |
| C=CC(=O)NCc1ccccc1C(=O)N[C@H]1CCc2cc(-n3c(-c4cccnc4N)nc4ccc(-n5cccn5)nc43)ccc21 [Example 71, N-[(1S)-5-[2-(2-aminopyridin-3-yl)-5-(pyrazol-1-yl)imidazo[4,5-b]pyridin-3-yl]-2,3-dihydro-1H-inden-1-yl]-2-(prop-2-enamidomethyl)benzamide] | 9.43 | 29.8 | 11.5 | 31.8 |
| C=CC(=O)N1CCC(N(CCOC)[C@H]2CCc3cc(-n4c(-c5cccnc5N)nc5ccc(-n6cccn6)nc54)ccc32)CC1 [Example 74, 1-(4-{[(1S)-5-[2-(2-aminopyridin-3-yl)-5-(pyrazol-1-yl)imidazo[4,5-b]pyridin-3-yl]-2,3-dihydro-1H-inden-1-yl](2-methoxyethyl)amino}piperidin-1-yl)prop-2-en-1-one] | > 1000 | 1630 | 179 | 2940 |
| C=CC(=O)N1CCC(N[C@@H]2c3ccc(-n4c(-c5cccnc5N)nc5ccc(-n6cccn6)nc54)cc3C[C@H]2F)CC1 [Example 75, 1-(4-(((1R,2R)-5-(2-(2-aminopyridin-3-yl)-5-(1H-pyrazol-1-yl)-3H-imidazo[4,5-b]pyridin-3-yl)-2-fluoro-2,3-dihydro-1H-inden-1-yl)amino)piperidin-1-yl)prop-2-en-1-one] | 35.9 | 287 | 20 | 511 |
| C=CC(=O)N1CCC(N[C@@H]2c3ccc(-n4c(-c5cccnc5N)nc5ccc(-n6cccn6)nc54)cc3C[C@@H]2F)CC1 [Example 76, 1-(4-(((1R,2S)-5-(2-(2-aminopyridin-3-yl)-5-(1H-pyrazol-1-yl)-3H-imidazo[4,5-b]pyridin-3-yl)-2-fluoro-2,3-dihydro-1H-inden-1-yl)amino)piperidin-1-yl)prop-2-en-1-one] | 60.1 | 369 | 23.3 | 232 |
| C=CC(=O)N1CCC12CCC(N[C@H]1CCc3cc(-n4c(-c5cccnc5N)nc5ccc(-n6cccn6)nc54)ccc31)CC2 (stereo partly drawn) [Example 80, 1-(7-{[(1S)-5-[2-(2-aminopyridin-3-yl)-5-(pyrazol-1-yl)imidazo[4,5-b]pyridin-3-yl]-2,3-dihydro-1H-inden-1-yl]amino}-1-azaspiro[3.5]nonan-1-yl)prop-2-en-1-one] | 41.7 | 120 | 15.7 | 166 |
| C=C(F)C(=O)N1CC2(CC(N[C@H]3CCc4cc(-n5c(-c6cccnc6N)nc6ccc(-n7cccn7)nc65)ccc43)C2)C1 [Example 83, (S)-1-(6-((5-(2-(2-aminopyridin-3-yl)-5-(1H-pyrazol-1-yl)-3H-imidazo[4,5-b]pyridin-3-yl)-2,3-dihydro-1H-inden-1-yl)amino)-2-azaspiro[3.3]heptan-2-yl)-2-fluoroprop-2-en-1-one] | 192 | 506 | 56.2 | 583 |
| C=C(F)C(=O)N1CCC2(CC1)CC(N[C@H]1CCc3cc(-n4c(-c5cccnc5N)nc5ccc(-n6cccn6)nc54)ccc31)C2 [Example 84, (S)-1-(2-((5-(2-(2-aminopyridin-3-yl)-5-(1H-pyrazol-1-yl)-3H-imidazo[4,5-b]pyridin-3-yl)-2,3-dihydro-1H-inden-1-yl)amino)-7-azaspiro[3.5]nonan-7-yl)-2-fluoroprop-2-en-1-one] | 264 | 327 | 34.1 | 278 |
| C=CC(=O)N1CCC(N[C@H]2CCc3cc(-n4c(-c5cccnc5N)nc5ccc(C6CC6)nc54)ccc32)CC1 [Example 85, (S)-1-(4-((5-(2-(2-aminopyridin-3-yl)-5-cyclopropyl-3H-imidazo[4,5-b]pyridin-3-yl)-2,3-dihydro-1H-inden-1-yl)amino)piperidin-1-yl)prop-2-en-1-one] | 546 | 1390 | 46 | 865 |
| C=CC(=O)N1CCC(N[C@H]2CCc3cc(-n4c(-c5cccnc5N)nc5ccc(N6CCOCC6)nc54)ccc32)CC1 [Example 86, (S)-1-(4-((5-(2-(2-aminopyridin-3-yl)-5-morpholino-3H-imidazo[4,5-b]pyridin-3-yl)-2,3-dihydro-1H-inden-1-yl)amino)piperidin-1-yl)prop-2-en-1-one] | 153 | 180 | 13.7 | 584 |
| CC(C)(C)/C=C/C(=O)N1CCC(N[C@H]2CCc3cc(-n4c(-c5cccnc5N)nc5ccc(-n6cccn6)nc54)ccc32)CC1 [Example 95, (S,E)-1-(4-((5-(2-(2-aminopyridin-3-yl)-5-(1H-pyrazol-1-yl)-3H-imidazo[4,5-b]pyridin-3-yl)-2,3-dihydro-1H-inden-1-yl)amino)piperidin-1-yl)-4,4-dimethylpent-2-en-1-one] | 312 | 677 | 110 | 1190 |
| C/C=C/C(=O)N1CCC(N[C@H]2CCc3cc(-n4c(-c5cccnc5N)nc5ccc(-n6cccn6)nc54)ccc32)CC1 [Example 96, (S,E)-1-(4-((5-(2-(2-aminopyridin-3-yl)-5-(1H-pyrazol-1-yl)-3H-imidazo[4,5-b]pyridin-3-yl)-2,3-dihydro-1H-inden-1-yl)amino)piperidin-1-yl)but-2-en-1-one] | > 1000 | 3650 | 58 | 3910 |
| C=CC(=O)N1CCC(N[C@H]2CCc3cc(-n4c(-c5cccnc5N)nc5ccc(-c6ccn(C(F)F)n6)nc54)ccc32)CC1 [Example 107, 1-(4-{[(1S)-5-[2-(2-aminopyridin-3-yl)-5-[1-(difluoromethyl)pyrazol-3-yl]imidazo[4,5-b]pyridin-3-yl]-2,3-dihydro-1H-inden-1-yl]amino}piperidin-1-yl)prop-2-en-1-one] | 18.1 | 164 | 6.19 | 192 |
| C=C(OC)C(=O)Nc1ccccc1C(=O)N[C@H]1CCc2cc(-n3c(-c4cccnc4N)nc4ccc(-n5cccn5)nc43)ccc21 [Example 108, (S)-N-(5-(2-(2-aminopyridin-3-yl)-5-(1H-pyrazol-1-yl)-3H-imidazo[4,5-b]pyridin-3-yl)-2,3-dihydro-1H-inden-1-yl)-2-(2-methoxyacrylamido)benzamide] | 42.4 | 94.3 | 10.2 | 165 |
| C=CC(=O)N1CCC(N[C@H]2CCc3cc(-n4c(-c5cccnc5N)nc5ccc(-c6ncco6)nc54)ccc32)CC1 [Example 109, (S)-1-(4-((5-(2-(2-aminopyridin-3-yl)-5-(oxazol-2-yl)-3H-imidazo[4,5-b]pyridin-3-yl)-2,3-dihydro-1H-inden-1-yl)amino)piperidin-1-yl)prop-2-en-1-one] | 124 | 3160 | 24.9 | 454 |
